Test results reported in patent US10464885B2, “Compound, preparation method therefor, applications thereof, corresponding targeted drug delivery system, chemotherapy drugs, and treatment method” (BEIJING XINDE RUNXING TECHNOLOGY CO., LTD., priority 2015, dated 2019).

Key:
human body = conditions: oral treatment of taeniasis, adults and children; cited from earlier work
[1] = Solubility in solvents (experimental results); type: physicochemical
Text: The molecular weight is 367.9967.

Jurkat cell line = assay: Cell viability CCK-8 assay, Jurkat cell suspension; type: cell-based; conditions: six concentrations 0.041 μM-10 μM; 24 h, 48 h and 72 h; OD at 450 nm
Method: Test cell line: Jurkat cell line (purchased from Nanjing Cobioer Co., Ltd.)
Experimental method: Cell viability CCK-8 assay
Experimental design: within a dose concentration range of 0.041 μM-10 μM, six concentrations were designed with three-fold increments, including 0.041 μM, 0.123 μM, 0.367 μM, 1.1 μM, 3.3 μM and 10 μM.
1. A Jurkat cell suspension was prepared and inoculated to the 96-well plate at an amount of 5×10^4/well.
2. The Jurkat cell suspension was directly added to different concentrations of NIC-1 and control drug N-(2-chloro-4-nitrophenyl)-5-chloro-2-hydroxybenzamide, followed by culture in an incubator at 37° C. for 24 h, 48 h and 72 h respectively; CCK8 was measured by adding CCK8 to each well at an amount of 10 μl/well, culturing for 2-3 h and detecting a value of OD at 450 nm using a microplate reader.
Experimental results: the outcomes of the synthesized compound NIC-1 of the present invention and the control drug N-(2-chloro-4-nitrophenyl)-5-chloro-2-hydroxybenzamide in the six concentrations were compared with those of the blank control, respectively. […]

[2] = system: small cell lung cancer cell line H446; assay: H446 cell colony in vitro formation assay (crystal violet staining); type: cell-based; conditions: Day 7 (one week)
Method: Test cell line: small cell lung cancer cell line H446 (purchased from Shanghai Beinuo Life Science Co., Ltd.) Experimental method: H446 cell colony in vitro formation assay
Detection method: crystal violet staining
On Day 1, a 6-well plate (Transwell, batch No. 3428, manufactured by Corning Incorporated) was adopted as cell plate, with 2000 cells/well per plate.
On Day 2, after microscopic observation of cell adherence, a 1 ml medium containing the drug was loaded to each well, with settings of 2 wells in one group and totally three groups: A. 6 μmol/L, a. 6 μmol/L (multiple wells); B. blank (no drug); b. blank (no drug, multiple wells); C. 12 μmol/L; c. 12 μmol/L (multiple wells); the drugs were changed every three days, and the observation was performed every day.
On Day 7, cell colonies were visually observed at the bottom of the vessel, and the cells were collected by: discarding the culture medium in each well, washing cells with phosphate buffered saline (PBS) twice for 5 minutes each time, adding 500 μl crystal violet stain solution to each well for staining at room temperature for 15 minutes, washing cells with PBS twice for 5 minutes each time, and finally detecting on a WB analyzer.

[3] = system: small cell lung cancer cell line H446; assay: Cell viability CCK-8 assay, H446; type: cell-based; conditions: 48 h after dosing
Text: Test cell line: small cell lung cancer cell line H446 (purchased from Shanghai Beinuo Life Science Co., Ltd.)
Cell viability CCK-8 assay: CCK8 assay, with a reagent containing 2-(2-methoxy-4-nitrophenyl)-3-(4-nitrophenyl)-5-(2,4-disulfophenyl)-2H-tetrazole monosodium salt (WST-8), is reduced by dehydrogenase in the cells in the presence of electron carrier 1-methoxy-5-methylphenazinium […] (1-Methoxy PMS), to obtain a highly water-soluble yellow formazan product (Formazan), and the count of viable cells is positively associated with the amount of obtained formazan product. Thus, CCK8 assay can be directly used for the evaluation of cell proliferation and toxicity analysis.
Each well of 96-well plate was loaded at an amount of 7×10^3 cells/well. After 24 h plating, 200 μl of solution was supplied to each well. NIC-1, vp-16 and blank were applied to the plate in four concentrations: concentration 1=1.528 μm, concentration 2=1.528 μm*2, concentration 3=1.528 μm*5, concentration 4=1.528 μm*10, wand each group was made in triplicate.
The plate was harvested 48 h after dosing, by:
discarding 200 μl solution in each well, adding 100 μl solution (90 μl medium+10 μl CCK8 stock solution) to each well, placing the plate in a 37° C. incubator for about 1 hour, and measuring a value of OD at 450 nm using a microplate reader.
The small cell lung cancer cell line H446 was treated with NIC-1 and etoposide (vp16) for […] respectively, and then the cell viability was detected by CCK-8 assay.
The synthesized compound NIC-1 of the present invention in the concentrations of 1.528 μM, 3.056 μM, 7.64 μM and 15.28 μM was compared with etoposide (vp16) and blank control, respectively. As shown in FIGS. 5-8, a chart of comparison of the inhibitory effect on the cell viability of small cell lung cancer cell line H446 was shown in each figure, wherein the horizontal axis represented the blank control, NIC-1, vp-16 and corresponding dosage concentrations, and the vertical axis represented measured OD values.

[4] = system: patients with relapsed SCLC; conditions: cited from earlier work
[5] = oral, Day 1, 8 and 15 of 28 days

O=C(Nc1ccc([N+](=O)[O-])cc1Cl)c1cc(Cl)ccc1O [N-(2-chloro-4-nitrophenyl)-5-chloro-2-hydroxybenzamide]
side effects (human body): occasional side effects manifested by fatigue, dizziness, chest tightness, gastrointestinal disorders, fever and itching

CC(=O)Oc1ccc(Cl)cc1C(=O)Nc1ccc([N+](=O)[O-])cc1Cl [NIC-1, N-(2-chloro-4-nitrophenyl)-5-chloro-2-acetoxybenzamide]
solubility in dichloromethane ([1]; dichloromethane): soluble | solubility in ethanol ([1]; ethanol): slightly soluble | solubility in ether ([1]; ether): slightly soluble | solubility in water ([1]; water): insoluble | inhibitory effect on cell viability of Jurkat cell line compared with control drug (Jurkat cell line): superior to the control drug | inhibition of growth of H446 cells (colony formation) ([2]; 6 μmol/L): partially inhibited | inhibition of growth of H446 cells (colony formation) ([2]; 12 μmol/L): completely inhibited | inhibitory effect on cell viability of H446 compared with etoposide (vp16) ([3]; 1.528 μM): slightly better than etoposide (vp16) | inhibitory effect on cell viability of H446 compared with etoposide (vp16) ([3]; 3.06 μM): significantly better than etoposide (vp16) | inhibitory effect on cell viability of H446 compared with etoposide (vp16) ([3]; 7.64 μM): significantly better than etoposide (vp16) | inhibitory effect on cell viability of H446 compared with etoposide (vp16) ([3]; 15.28 μM): significantly better than etoposide (vp16)

CC[C@@]1(O)C(=O)OCc2c1cc1n(c2=O)Cc2cc3c(CN(C)C)c(O)ccc3nc2-1 [topotecan]
dose at which dose-limiting toxicity (DLT) appeared [4, 5]: 4.5 mg/m^2 | maximum tolerated dose (MTD) [4, 5]: 4 mg/m^2 | II degree thrombocytopenia ([4]; weekly oral): 16.7% | II-III degree anemia ([4]; weekly oral): 33.3% | II-III degree fever ([4]; weekly oral): 44.4% | II-III degree neutropenia ([4]; weekly oral): 27.8% | median progression-free survival (PFS) ([4]; weekly oral): 2.3 months | median survival (OS) ([4]; weekly oral): 5.1 months
